# Assay results taken from ChEMBL document CHEMBL6103570, “An endoplasmic reticulum and lipid droplets dual-localized strategy to develop small molecular photosensitizers that induce ferroptosis during photodynamic therapy” (Eur J Med Chem, 2025).
# Activity calls are given as the source filed them. The rule behind the calls is not given here.
# Legend:
# 4T1 [1] = test: Antitumor activity against mouse 4T1 cells implanted in mouse model assessed as tumor growth inhibition at 3 mg/kg, IG measured every two days for 15 days under 80 mW/cm2 for 15 mins by digital caliper method relative to control; type: functional; conditions: 4T1, po, 360 h, time 15 day, read-out: TGI
# 4T1 [2] = test: Antitumor activity against mouse 4T1 cells implanted in mouse model assessed as infiltration of immune cells at 3 mg/kg, IG measured every two days for 15 days under 80 mW/cm2 for 15 mins by digital caliper method; type: functional, organism-based; conditions: time 15.0 day
# [3] = Drug localization in Lysosome of mouse 4T1 cells assessed as increase in green fluorescence by measuring pearson correlation coefficient at 2 uM incubated for 12 hrs by confocal scanning microscopy analysis; type: ADME, subcellular; conditions: 4t1, 12 h
# 4T1 [4] = test: Antitumor activity against mouse 4T1 cells implanted in mouse model assessed as reduction in tumor growth at 3 mg/kg, IG measured every two days for 15 days by digital caliper method; type: functional, organism-based; conditions: time 15.0 day
# 4T1 [5] = test: Induction of ferroptosis in mouse 4T1 cells assessed as cell viability at 20 nM preincubated for 24 hrs followed by white light irradiation at 20 mW/cm2 and measured after 24 hrs in presence of Fer-1 by MTT assay; type: functional, cell-based; conditions: time 48.0 hrs
# [6] = Drug localization in Lipid droplet of mouse 4T1 cells assessed as increase in green fluorescence at 2 uM incubated for 12 hrs by confocal scanning microscopy analysis; type: ADME, subcellular; conditions: 4t1, 12 h
# [7] = Phototoxicity in human Bcap37 cells assessed as cell viability preincubated for 24 hrs followed by white light irradiation at 20 mW/cm2 for 10 mins and measured after 24 hrs by MTT assay; type: functional, cell-based; conditions: Bcap37, light or radiation study
# 4T1 [8] = test: Induction of ferroptosis in mouse 4T1 cells assessed as cell viability at 20 nM preincubated for 24 hrs followed by white light irradiation at 20 mW/cm2 and measured after 24 hrs in presence of Z-VAD-FMK by MTT assay; type: functional, cell-based; conditions: time 48.0 hrs
# [9] = Phototoxicity in human MCF7 cells assessed as cell viability preincubated for 24 hrs followed by white light irradiation at 20 mW/cm2 for 10 mins and measured after 24 hrs by MTT assay; type: functional, cell-based; conditions: MCF7, light or radiation study
# 4T1 [10] = test: Induction of ferroptosis in mouse 4T1 cells assessed as increase in MDA level at 10 nM preincubated in dark condition for 24 hrs followed by 20mW/cm2 white light irradiation for 10 mins and measured after 6 hrs by colorimetric assay; type: functional, cell-based; conditions: time 1810.0 min
# [11] = Toxicity in mouse assessed as effect on heart in at 3 mg/kg, IG measured after 15 days by H and E staining based analysis; type: organism-based; conditions: in vivo, po, 360 h, time 15 day
# 4T1 [12] = test: Antitumor activity against mouse 4T1 cells implanted in mouse model assessed as reduction in tumor cells at 3 mg/kg, IG measured every two days for 15 days under 80 mW/cm2 for 15 mins by digital caliper method; type: functional, organism-based; conditions: time 15.0 day
# [13] = Phototoxicity in human MDA-MB-231 cells assessed as cell viability preincubated for 24 hrs followed by white light irradiation at 20 mW/cm2 for 10 mins and measured after 24 hrs by MTT assay; type: functional, cell-based; conditions: MDA-MB-231, light or radiation study
# [14] = Toxicity in mouse assessed as effect on liver in at 3 mg/kg, IG measured after 15 days by H and E staining based analysis; type: organism-based; conditions: in vivo, po, 360 h, time 15 day
# [15] = Toxicity in mouse assessed as effect on kidney in at 3 mg/kg, IG measured after 15 days by H and E staining based analysis; type: organism-based; conditions: in vivo, po, 360 h, time 15 day
# 4T1 [16] = test: Antitumor activity against mouse 4T1 cells implanted in mouse model assessed as reduction in metastatic tumor at 3 mg/kg, IG measured every two days for 15 days by digital caliper method; type: functional, organism-based; conditions: time 15.0 day
# [17] = Photo selectivity index, ratio of CC50 for darktoxicity in human MCF7 cells assessed as cell viability preincubated for 24 hrs followed by incubation under dark condition for 24 hrs by MTT assay to IC50 for phototoxicity in human MCF7 cells assessed as cell viability preincubated for 24 hrs followed by white light irradiation at 20 mW/cm2 for 10 mins and measured after 24 hrs by MTT assay; type: toxicity, cell-based; conditions: read-out: Ratio CC50/IC50
# [18] = Photo selectivity index, ratio of CC50 for darktoxicity in human Bcap37 cells assessed as cell viability preincubated for 24 hrs followed by incubation under dark condition for 24 hrs by MTT assay to IC50 for phototoxicity in human Bcap37 cells assessed as cell viability preincubated for 24 hrs followed by white light irradiation at 20 mW/cm2 for 10 mins and measured after 24 hrs by MTT assay; type: toxicity, cell-based; conditions: read-out: Ratio CC50/IC50
# [19] = Photosensitizing ability of the compound in NaOH assessed as fluorescence quantum yield; type: functional
# [20] = Drug localization in Lipid droplet of mouse 4T1 cells assessed as increase in green fluorescence by measuring pearson correlation coefficient at 2 uM incubated for 12 hrs by confocal scanning microscopy analysis; type: ADME, subcellular; conditions: 4t1, 12 h
# [21] = Darktoxicity in human Bcap37 cells assessed as cell viability preincubated for 24 hrs followed by incubation under dark condition for 24 hrs by MTT assay; type: toxicity, cell-based; conditions: time 48 hrs
# 4T1 [22] = test: Induction of ferroptosis in mouse 4T1 cells assessed as cell viability at 20 nM preincubated for 24 hrs followed by white light irradiation at 20 mW/cm2 and measured after 24 hrs in presence of Nec-1 by MTT assay; type: functional, cell-based; conditions: time 48.0 hrs
# [23] = Photo selectivity index, ratio of CC50 for darktoxicity in human MDA-MB-231 cells assessed as cell viability preincubated for 24 hrs followed by incubation under dark condition for 24 hrs by MTT assay to IC50 for phototoxicity in human MDA-MB-231 cells assessed as cell viability preincubated for 24 hrs followed by white light irradiation at 20 mW/cm2 for 10 mins and measured after 24 hrs by MTT assay; type: toxicity, cell-based; conditions: read-out: Ratio CC50/IC50
# [24] = Toxicity in mouse assessed as effect on spleen in at 3 mg/kg, IG measured after 15 days by H and E staining based analysis; type: organism-based; conditions: in vivo, po, 360 h, time 15 day
# 4T1 [25] = test: Induction of intracellular ROS generation in mouse 4T1 cells assessed as increase in green fluorescence intensity at 5 to 60 nM incubated in dark for 24 hrs followed by compound removal and measured after 5 mins under 20 mW/cm2H2 white light irradiation in presence of NaN3 by H2-DCFDA staining based fluorescence assay; type: functional, cell-based; conditions: dose 5-60 nM
# 4T1 [26] = test: Induction of ferroptosis in mouse 4T1 cells assessed as decrease in intracellular GSH level at 10 nM preincubated in dark condition for 24 hrs followed by 20mW/cm2 white light irradiation for 10 mins and measured after 12 hrs by colorimetric assay; type: functional, cell-based; conditions: time 2170.0 min
# [27] = Drug localization in endoplasmic reticulum of mouse 4T1 cells assessed as increase in green fluorescence at 2 uM incubated for 12 hrs by confocal scanning microscopy analysis; type: ADME, subcellular; conditions: 4t1, 12 h
# [28] = Photo selectivity index, ratio of CC50 for darktoxicity in mouse 4T1 cells assessed as cell viability preincubated for 24 hrs followed by incubation under dark condition for 24 hrs by MTT assay to IC50 for phototoxicity in mouse 4T1 cells assessed as cell viability preincubated for 24 hrs followed by white light irradiation at 20 mW/cm2 for 10 mins and measured after 24 hrs by MTT assay; type: toxicity, cell-based; conditions: read-out: Ratio CC50/IC50
# [29] = Toxicity in mouse assessed as effect on lung in at 3 mg/kg, IG measured after 15 days by H and E staining based analysis; type: organism-based; conditions: in vivo, po, 360 h, time 15 day
# [30] = Photosensitizing ability of the compound in EtOH assessed as singlet oxygen quantum yield at 100 nM under 520nm 30 mW/cm2 light irradiation by DPBF reagent based analysis; type: functional
smiles,measurement,setting,value
COC(=O)c1cc2c3ccccc3n(C)c2c(C2=C3C(C)=C(I)C(C)=[N+]3[B-](F)(F)n3c(C)c(I)c(C)c32)n1,inhibition in vivo at 3 mg/kg,4T1 [1],67.6%
same,Activity,4T1 [2],Active
same,Activity,[3],0.53
same,Activity,4T1 [4],inactive
same,Activity,4T1 [5],Active
same,Drug uptake,[6],Active
same,IC50,[7],11 nM
same,Activity,4T1 [8],inactive
same,IC50,[9],13 nM
same,Activity,4T1 [10],Active
same,Activity,[11],Non-toxic
same,Activity,4T1 [12],Active
same,IC50,[13],10 nM
same,Activity,[14],Non-toxic
same,Activity,[15],Non-toxic
same,Activity,4T1 [16],Active
same,selectivity ratio,[17],> 7750
same,selectivity ratio,[18],> 8830
same,Activity,[19],0.22
same,Activity,[20],0.93
same,CC50 at 24 h,[21],> 100000 nM
same,Activity,4T1 [22],inactive
same,selectivity ratio,[23],> 9960
same,Activity,[24],Non-toxic
same,Activity,4T1 [25],inactive
same,Activity,4T1 [26],Active
same,Drug uptake,[27],Active
same,selectivity ratio,[28],> 5290
same,Activity,[29],Non-toxic
same,Activity,[30],0.78
